From patent US6521594B1, “Method and composition for treating thrombosis” (La Jolla Cancer Research Foundation, priority 1990, dated 2003)
Like-named read-outs stand apart in the source and are kept apart here. Non-standard residues stand in square brackets, D forms with d. No end group written: not given here. *: point of attachment. Pmc = Cc1c(C)c(S(=O)(=O)*)c(C)c2c1OC(C)(C)CC2; Pen = CC(C)(S)[C@H](N)C(=O)O

What was measured:
platelets [1] = molecular target: T1, platelets (Homo sapiens, UniProt P05106+P08514); assay: Platelet aggregation assay (Examples XI.G and XII); format: cell-based; conditions: for fold increase in platelet aggregation potency on substitution of Leu in analogue 5: comparator analogue 5
Protocol: Platelet aggregation was assessed using the method of Born, Nature 194:927-929 (1962), incorporated herein by reference. Briefly, the change in light transmission was measured through a stirred suspension of platelets in an aggregometer (Model 400 VS, Chrono-Log, Havertown, Pa., USA). Studies employing ADP were performed with platelet-rich plasma (PRP), which was obtained by low-speed centrifugation (200×g for 10 min.) of whole blood freshly drawn into trisodium citrate (at a final concentration of 11 mM). In studies using thrombin, the PRP was gel-filtered on Sepharose 2B in divalent ion-free Tyrode's solution containing 2% BSA. For all studies, the reference standard was platelet-poor plasma, which was obtained by centrifuging PRP at 1000×g for 5 min.
All aggregation studies were performed at 37° C. with a constantly stirred suspension of 3×10^8 platelets/mL. (Platelet count was determined with the aid of a hemacytometer.) Peptides and stimulants were added to these suspensions in 1% dilutions. The PRP and gel-filtered platelets were used within three hours from the time of blood collection.
The peptides described in this Example were synthesized according to the methods of Examples I and XI. Selectivity and potency were measured according to the methods of Examples II through XI. The peptide identification numbers used in this Example are consistent and relevant to this Example only. Some of the peptides are identified by other nomenclature elsewhere in this document.

platelets [2] = molecular target: T1, platelets; assay: Thrombin-stimulated platelet aggregation (gel-filtered platelets); format: cell-based; conditions: thrombin 2 U/ml
Protocol: (§5) All aggregation studies were performed at 37° C. with a constantly stirred suspension of 3×10^8 platelets/ml. (Platelet count was determined with the aid of a hemacytometer.) Peptides and stimulants were added to these suspensions in 1% dilutions. The PRP and gel-filtered platelets were used within three hours from the time of blood collection.
(§6) Peptide anti-aggregation potencies were determined from dose-responsive curves for the inhibition of the maximum aggregation responses stimulated by physiologic doses of ADP (10 μm) and thrombin (2 U/ml).

platelets [3] = assay: Ex vivo platelet aggregation in the canine coronary thrombosis study; parameters: species or system dog; conditions: 10 mg/kg injection
Protocol: For all ex vivo studies (see FIG. 3), control aggregation values were standardized to the percentages of light transmission observed in PRP and PPP samples (0% and 100%, respectively).
(§1) Animals were randomly assigned to two treatment groups: vehicle control (i.e., normal saline) or RGD peptides at various concentrations. Peptides were administered intra-atrially in both bolus and continuous injections. Each bolus injection consisted of 0.5 to 10 mg/kg and was administered 15 minutes before application of the current. A continuous infusion of the same peptide was then started immediately after completion of this initial injection. Animals received a 25 μg/kg/min to 200 μg/kg/min infusion. The anti-thrombotic effects of the peptides were monitored until 30 minutes after the occurrence of a persistent, occlusive thrombus or five hours after the initiation of electrical stimulation (whichever resulted first). If an occlusive thrombus had not developed within four hours after the initiation of current, the peptide infusion was stopped.
Platelet counts and ex vivo aggregation studies were performed one hour before and 1, 3, and 5 hours after application of anodal direct current.
Platelet aggregation was also determined ex vivo at one, three, and five hours after current application. For these studies, arachidonic acid, or collagen was again used to stimulate the platelets.

coronary thrombosis = assay: Electrically induced canine coronary thrombosis (time to full occlusion); format: in vivo, dog
Protocol: Male mongrel dogs weighing 14 to 20 kg were selected based on proper aggregation of their platelets in response to arachidonic acid, collagen, and adenosine disphosphate (ADP) and based on similar weights and hemodynamic properties.
Before surgery, the animals were anesthetized with sodium pentobarbital (30 mg/kg, i.v.) and then intubated and ventilated on room air with positive pressure using a respirator (Harvard Apparatus, S. Natick, Mass.) at a volume of 30 ml/kg and a frequency of 12 breaths/min. Surgery, performed under aseptic conditions, was begun with the placement of cannulae into the left carotid artery and jugular vein for monitoring arterial blood pressure (Statham P23 pressure transducer, Gould, Inc., Cardiovascular Products, Oxnard, Calif.) and administering intravenous fluids.
The heart was exposed via a left thoracotomy through the 5th intercostal space. A 2-cm segment of the left circumflex coronary artery (LCCA) was isolated from surrounding tissue by blunt dissection. […] The intra-coronary electrode was constructed by attaching a 25-gauge hypodermic needle tip to a 30-gauge Teflon-insulated silver-coated copper wire. The mechanical occluder was constructed of stainless steel in a C shape with a Teflon screw (2 mm diameter) on top. It was adjusted to control vessel circumference and decrease the reactive hyperemic flow due to a 10-sec (full) occlusion by 50-70% without affecting basal coronary blood flow (FIG. 1). A monopolar epicardial electrode was sutured to the surface of the ventricle in the region of LCCA distribution to monitor ischemic changes in the electrocardiogram (ECG). The left atrium was cannulated with polythylene tubing for administration of the peptide. Continuous recordings of blood pressure, limb lead II ECG, epicardial electrogram, and mean and phasic LCCA blood flow were obtained on a Model 7 polygraph (Grass Instrument Co., Quincy, Mass.).
One hour after the completion of surgery, a 100 micro-amp continuous anodal direct current delivered from a 9 volt nickel-cadmium battery was applied to the intimal surface of the LCCA. The anode of the battery was in series with a 250,000 ohm potentiometer and the intraluminal coronary artery electrode. The electric circuit was completed by placing the cathode in a subcutaneous site. Electrical stimulation was applied for three hours. At the conclusion of each experiment, the heart was fibrillated electrically and quickly removed, and the LCCA was dissected free as far as possible to verify the position of the implanted anodal electrode.
as §1
Coronary thrombosis was quantified as the time to full occlusion. The effects of the various peptide treatments on coronary thrombosis is illustrated in FIG. 4.

αvβ5 [4] = assay: αvβ5 ELISA IC50 (μM)
Text: Table printed on a drawing sheet, FIG. 23
Title: Modification of Ac-CNPRGD(Y-OMe)RC-NH2
(§2) Head of the field: αvβ5 ELISA IC50 (μM)
First copying reader's note: Underlining in the printed sequences marks the cyclised part (C to C); the footnote for the raised a on 'Peptide' is not printed on the sheet.
(§3) Where the first naming reader finds the target: head: αvβ5 ELISA IC50 (μM)

αvβ5 [5] = assay: αvβ5 ELISA IC50 (μM); remark: listed apart in the source
Text: Table printed on a drawing sheet, FIG. 20
(§4) Title: Modifications of R(Pmc)GHRGD(Y-OMe)RCR
as §2
First copying reader's note: Footnote marks a, b and c are printed but their texts are not on the sheet; the underlined part of each sequence (Pmc to C) marks the cyclic portion, and D in (DH) and (DY) is a small capital for the D-amino acid.
as §3

αvβ5 [6] = assay: αvβ5 ELISA IC50 (μM); remark: listed apart in the source
Text: Table printed on a drawing sheet, FIG. 22
Title: Modifications of Ac-CNPRGD(Y-OMe)RC-NH2
as §2
First copying reader's note: Underlining in the printed sequences marks the cyclic part; the footnote for the raised a at 'Peptide' is not printed on the sheet, and the D in D-Pen is printed as a small capital.
as §3

αvβ5 [7] = assay: αvβ5 ELISA IC50 (μM); remark: listed apart in the source
Text: Table printed on a drawing sheet, FIG. 19
as §4, §2
First copying reader's note: The part of each sequence from (Pmc) through C is underlined on the sheet, and the footnotes a,b cited in the head are not printed on it.
as §3

αvβ5 [8] = assay: αvβ5 ELISA IC50 (μM); remark: listed apart in the source
Text: Table printed on a drawing sheet, FIG. 17
Title: Modifications of G(Pen)[…]
as §2
The patent's description of the figure: FIG. 17 is a Table showing the effect of modifications of Pen residue at position −3 (as defined, infra) on potency and selectivity.
First copying reader's note: Underlining in the printed sequences marks the cyclized part; the footnotes a and b are referenced but not printed on the sheet.
as §3

platelets [9] = molecular target: T1, platelets; format: cell-based; conditions: ADP 10 μm; citrated PRP; read-out: ADP-Stimulated Aggregation (IC50)
Protocol: Briefly, the change in light transmission was measured through a stirred suspension of platelets in an aggregometer (Model 400 VS, Chrono-Log, Havertown, Pa., USA). […] In studies using thrombin, the PRP was gel-filtered on Sepharose 2B in divalent ion-free Tyrode's solution containing 2% BSA. For all studies, the reference standard was platelet-poor plasma, which was obtained by centrifuging PRP at 1000×g for 5 min.
as §5, §6

T1 sequence (P08514 32-1039): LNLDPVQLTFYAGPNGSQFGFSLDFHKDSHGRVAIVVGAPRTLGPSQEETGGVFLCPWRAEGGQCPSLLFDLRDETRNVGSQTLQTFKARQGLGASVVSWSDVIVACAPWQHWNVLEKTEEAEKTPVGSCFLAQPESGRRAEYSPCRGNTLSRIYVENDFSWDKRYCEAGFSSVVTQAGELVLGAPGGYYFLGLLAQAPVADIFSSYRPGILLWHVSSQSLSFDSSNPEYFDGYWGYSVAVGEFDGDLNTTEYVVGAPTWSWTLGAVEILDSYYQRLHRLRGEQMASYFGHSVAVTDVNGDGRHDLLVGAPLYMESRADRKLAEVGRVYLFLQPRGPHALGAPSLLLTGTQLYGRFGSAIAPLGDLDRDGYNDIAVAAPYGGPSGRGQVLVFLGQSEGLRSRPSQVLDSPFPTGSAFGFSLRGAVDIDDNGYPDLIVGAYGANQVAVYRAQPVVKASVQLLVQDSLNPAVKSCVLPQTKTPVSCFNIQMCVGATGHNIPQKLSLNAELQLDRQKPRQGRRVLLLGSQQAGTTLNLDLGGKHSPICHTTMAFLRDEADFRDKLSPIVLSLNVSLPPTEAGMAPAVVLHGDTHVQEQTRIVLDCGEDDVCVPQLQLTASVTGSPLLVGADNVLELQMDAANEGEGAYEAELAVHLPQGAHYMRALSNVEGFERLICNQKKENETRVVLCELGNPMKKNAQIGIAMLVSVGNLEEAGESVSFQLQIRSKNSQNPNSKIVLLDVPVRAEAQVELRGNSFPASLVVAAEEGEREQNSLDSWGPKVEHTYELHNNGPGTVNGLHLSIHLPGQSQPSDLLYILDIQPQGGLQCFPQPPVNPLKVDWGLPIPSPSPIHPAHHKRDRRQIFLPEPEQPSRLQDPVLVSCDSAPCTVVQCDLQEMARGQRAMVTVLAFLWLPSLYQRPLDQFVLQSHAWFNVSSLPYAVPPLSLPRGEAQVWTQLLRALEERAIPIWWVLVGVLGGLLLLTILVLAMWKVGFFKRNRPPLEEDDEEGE
T1 sequence (P05106 27-788): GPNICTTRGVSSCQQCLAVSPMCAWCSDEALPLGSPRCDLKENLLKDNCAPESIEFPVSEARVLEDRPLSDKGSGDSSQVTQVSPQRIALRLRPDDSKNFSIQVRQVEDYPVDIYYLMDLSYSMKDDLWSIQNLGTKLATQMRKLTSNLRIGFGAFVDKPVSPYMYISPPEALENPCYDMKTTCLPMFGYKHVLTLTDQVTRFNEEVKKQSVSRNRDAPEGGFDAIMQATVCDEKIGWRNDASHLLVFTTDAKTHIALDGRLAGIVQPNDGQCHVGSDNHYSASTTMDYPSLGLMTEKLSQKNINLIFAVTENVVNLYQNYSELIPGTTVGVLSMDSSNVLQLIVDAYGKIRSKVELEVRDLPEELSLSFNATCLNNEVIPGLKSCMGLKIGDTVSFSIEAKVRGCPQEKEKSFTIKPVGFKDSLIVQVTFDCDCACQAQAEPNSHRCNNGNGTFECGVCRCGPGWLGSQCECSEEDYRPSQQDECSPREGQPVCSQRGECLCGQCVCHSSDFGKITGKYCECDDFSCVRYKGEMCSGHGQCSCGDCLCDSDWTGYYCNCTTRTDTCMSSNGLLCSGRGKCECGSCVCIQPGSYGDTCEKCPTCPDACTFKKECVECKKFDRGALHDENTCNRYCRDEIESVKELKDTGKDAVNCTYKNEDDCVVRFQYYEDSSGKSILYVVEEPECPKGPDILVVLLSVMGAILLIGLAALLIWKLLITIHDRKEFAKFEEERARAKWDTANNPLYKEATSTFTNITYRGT

“Ac-CNPRGD(Y-OMe)KC-NH2 [11R] [listing 1 of 2 here]” was tested, and the “retained inhibitory activity versus analogue 32” value (platelets [1]; comparator analogue 32) was 20%.

For R(Pen)GRGDWPCR [4R], the IC50 (platelets [2]) was 0.53 µM, the “ex vivo platelet aggregation by ADP, AA and collagen” value (platelets [3]) was “unresponsive to all modes of stimulation at all time points” and the “coronary thrombosis: time to full occlusion” value (coronary thrombosis; 3 mg/kg) was “ineffective”. For the same substance, the “coronary thrombosis: time to full occlusion” value (coronary thrombosis; 10 mg/kg) was “prevented occlusion throughout the duration of the study”.

“Ac-CNPRGD(Y-OMe)KC-NH2 [11R] [listing 2 of 2 here]” was tested, and the IC50 (αvβ5 [4]) was 5.82 µM.

With R(Pmc)GPRGD(Y-OMe)RCR [compound 26] the IC50 (αvβ5 [5]) was 1.7 µM.

For (Pmp)NPRGD(Y-OMe)RC-NH2 [compound 38], the IC50 (αvβ5 [6]) was 4.9 µM.

For GNPRGD(O-Me-Y)RD-NH2 [20Q], the “potency relative to 17J” value (platelets [1]; comparator 17J) was “about three times” and the “potency relative to 18J” value (platelets [1]; comparator 18J) was “about 20 times”.

With Ac-CNPRGD(Y-OMe)EC-NH2 [11J] the IC50 (αvβ5 [4]) was 9.47 µM.

R(Pmc)DHRGD(Y-OMe)RCR [compound 18] was tested, and the IC50 (αvβ5 [7]) was 7.2 µM.

“R(Tmc)GHRGDLRCR [analogue 7] [listing 1 of 2 here]” was tested, and the IC50 (αvβ5 [8]) was 0.34 µM.

In the case of (Mpr)RGD(O-Me-Y)RC-NH2 [16A], the “reactivity in platelet aggregation relative to 8×” value (platelets [1]; comparator 8×) is reported as “about two-fold”.

Substance R(D-Pen)GHRGDLRCR [analogue 4] has an IC50 (αvβ5 [8]) of 10 µM.

Work on “G[Pen]GRGDSFCA (cysteine pairing not given here)” yielded an IC50 (platelets [9]) of 115 µM.

In the case of “R(Tmc)GHRGDLRCR [analogue 7] [listing 2 of 2 here]”, the “fold more potent than analogue 3 in the aggregation assay” value (platelets [1]; comparator analogue 3) is reported as 2 fold.

Substance R(Pen)GRGDTPCA has an IC50 (platelets [9]) of 7 µM.

Work on Ac-CNPRGD(Y-OMe)(Cit)C-NH2 [11S] yielded an IC50 (αvβ5 [4]) of 3.46 µM.

For G(Pen)LRGDSPCA, the IC50 (platelets [2]) was 308 µM and the IC50 (platelets [9]) was 415 µM.

Substance R(Pen)GRGDTPCR has an IC50 (platelets [2]) of 2 µM.

For G(Pen)FRGDSFCA, the IC50 (platelets [9]) was less than 200 µM.

“Ac-(D-Pen)NPRGD(Y-OMe)RC-NH2 [compound 36]” gave an IC50 (αvβ5 [6]) of 6.7 µM.

R(Pmc)GHRGDFRCR was tested, and the “fold increase in platelet aggregation potency on substitution of Leu in analogue 5” value (platelets [1]) was roughly 5 fold and the IC50 (platelets [9]) was 0.62 µM.

With “Ac-CNPRGD(O-N-Butyl-Y)RC-NH2 [analogue 34]” the “fold increase in potency over analogue 1” value (platelets [1]; comparator analogue 1) was “about 150 fold”.

With R(Pmc)GHRGDVRCR the “fold increase in platelet aggregation potency on substitution of Leu in analogue 5” value (platelets [1]) was 4 fold and the IC50 (platelets [9]) was 0.69 µM.

G(Pen)GRGDRPCA showed an IC50 (platelets [9]) of 22.3 µM.

For Ac-CNPRGD(Y-OMe)OC-NH2 [11P], the IC50 (αvβ5 [4]) was 7.7 µM.

Work on R(Pmc)GHRGDYRCR yielded an IC50 (platelets [9]) of 1 µM.

In the case of G(Pen)GHRGDLRCA [2G], the IC50 (αvβ5 [8]) is reported as 8.26 µM.
